The source of these data is patent US8129371B2, “Thienopyrimidine and pyrazolopyrimidine compounds and their use as mTOR kinase and PI3 kinase inhibitors” (Wyeth LLC, priority 2007, dated 2012).

Like-named read-outs stand apart in the source and are kept apart here.

One assay addresses T1, Human mTOR (FLAG-TOR) (Homo sapiens, UniProt P42345).
T1 construct: FLAG
As to the kind of experiment: Human mTOR kinase assay with purified enzyme, DELFIA format. It counts as biochemical. In outline:
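Purified FLAG-mTOR in HEPES pH 7.4 buffer with 10 mM MnCl2 was preincubated with inhibitor and reacted 2 h at room temperature with His6-S6K substrate, then stopped with EDTA/EGTA. Phospho-T389 S6K detected by DELFIA with Eu-labelled antibody (40 ng/mL) after plate capture; inhibition computed from signal.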

Assay [1] concerns the target T2, PI3K (Homo sapiens, UniProt P42336).
T2 construct: PI3 Kinase α IC50; other: PI3 Kinase α; other: PI3 Kinase α isoform, fluorescence polarization
Briefly: Fluorescence polarization assay for PI3K. It counts as biochemical. The following applies: read-out: PI3 Kinase α IC50. In outline: (§1)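 PI3K was preincubated with compound (final DMSO 1%), and the reaction was started with PIP2/ATP substrate and run 30–60 min. It was stopped with a detector mix giving 10 nM red probe and 70 nM GST-GRP.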

Assay [2] addresses T3, PI3K (Homo sapiens, UniProt P48736).
T3 construct: PI3 Kinase γ IC50; other: PI3 Kinase γ; other: PI3 Kinase γ isoform, fluorescence polarization
Briefly: Fluorescence polarization assay for PI3K. It counts as biochemical. The following applies: read-out: PI3 Kinase γ IC50. In short, it runs like this: as §1
(Fluorescence polarisation rises when a labelled molecule tumbles more slowly, as on binding a larger partner.)

For the next assay, the system named is breast line MDA468. As to the kind of experiment: In vitro cell culture growth assay (MTS), MDA468. It counts as cell-based. The conditions noted are these: Homo sapiens, 72 h, MDA468 cells, three days after drug treatment. In outline:
(§2)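 Plate cells; add inhibitors on day 1; after 3 days' treatment, add MTS; read A490; express as percent growth of vehicle-treated control.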

Another assay deals with prostate line LNCap. Briefly: In vitro cell culture growth assay (MTS), LNCap. The following applies: Homo sapiens, LNCaP, 72 h, LNCap cells, three days after drug treatment. In kind it is cell-based. In outline: as §2
Setting [3] is: purified human mTOR enzyme, DELFIA format.
The mark [4] stands for this setting: PI3 Kinase α isoform, fluorescence polarization.
The mark [5] stands for this setting: PI3 Kinase γ isoform, fluorescence polarization.

T2 sequence (P42336 whole entry, canonical isoform): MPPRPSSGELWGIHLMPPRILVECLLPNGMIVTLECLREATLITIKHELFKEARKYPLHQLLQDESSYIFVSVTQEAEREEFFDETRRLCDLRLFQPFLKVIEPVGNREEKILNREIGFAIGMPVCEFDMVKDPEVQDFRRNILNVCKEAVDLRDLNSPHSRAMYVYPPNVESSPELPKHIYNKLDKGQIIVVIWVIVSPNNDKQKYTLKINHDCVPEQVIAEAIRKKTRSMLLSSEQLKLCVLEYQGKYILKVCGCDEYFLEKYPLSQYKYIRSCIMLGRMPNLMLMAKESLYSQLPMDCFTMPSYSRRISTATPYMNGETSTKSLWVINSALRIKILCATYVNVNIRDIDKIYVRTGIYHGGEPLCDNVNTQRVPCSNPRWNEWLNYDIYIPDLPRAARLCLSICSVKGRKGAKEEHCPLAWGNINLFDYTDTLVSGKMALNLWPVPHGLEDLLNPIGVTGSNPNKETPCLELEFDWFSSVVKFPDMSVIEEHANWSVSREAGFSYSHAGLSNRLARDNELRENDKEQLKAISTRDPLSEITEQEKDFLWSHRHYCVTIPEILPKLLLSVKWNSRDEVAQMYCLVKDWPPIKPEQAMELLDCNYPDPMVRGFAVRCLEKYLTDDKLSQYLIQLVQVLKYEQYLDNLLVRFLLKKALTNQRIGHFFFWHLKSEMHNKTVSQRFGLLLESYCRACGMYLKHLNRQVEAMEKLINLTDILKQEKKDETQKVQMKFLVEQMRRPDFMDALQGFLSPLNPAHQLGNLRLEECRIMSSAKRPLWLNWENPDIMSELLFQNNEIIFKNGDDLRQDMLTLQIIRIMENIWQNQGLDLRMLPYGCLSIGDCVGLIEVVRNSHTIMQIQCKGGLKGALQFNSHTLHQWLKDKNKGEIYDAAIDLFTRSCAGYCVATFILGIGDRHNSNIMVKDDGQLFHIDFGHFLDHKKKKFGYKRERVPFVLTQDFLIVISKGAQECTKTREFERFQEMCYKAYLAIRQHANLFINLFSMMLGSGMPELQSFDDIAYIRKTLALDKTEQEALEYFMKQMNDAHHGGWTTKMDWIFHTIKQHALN
T3 sequence (P48736 whole entry, canonical isoform): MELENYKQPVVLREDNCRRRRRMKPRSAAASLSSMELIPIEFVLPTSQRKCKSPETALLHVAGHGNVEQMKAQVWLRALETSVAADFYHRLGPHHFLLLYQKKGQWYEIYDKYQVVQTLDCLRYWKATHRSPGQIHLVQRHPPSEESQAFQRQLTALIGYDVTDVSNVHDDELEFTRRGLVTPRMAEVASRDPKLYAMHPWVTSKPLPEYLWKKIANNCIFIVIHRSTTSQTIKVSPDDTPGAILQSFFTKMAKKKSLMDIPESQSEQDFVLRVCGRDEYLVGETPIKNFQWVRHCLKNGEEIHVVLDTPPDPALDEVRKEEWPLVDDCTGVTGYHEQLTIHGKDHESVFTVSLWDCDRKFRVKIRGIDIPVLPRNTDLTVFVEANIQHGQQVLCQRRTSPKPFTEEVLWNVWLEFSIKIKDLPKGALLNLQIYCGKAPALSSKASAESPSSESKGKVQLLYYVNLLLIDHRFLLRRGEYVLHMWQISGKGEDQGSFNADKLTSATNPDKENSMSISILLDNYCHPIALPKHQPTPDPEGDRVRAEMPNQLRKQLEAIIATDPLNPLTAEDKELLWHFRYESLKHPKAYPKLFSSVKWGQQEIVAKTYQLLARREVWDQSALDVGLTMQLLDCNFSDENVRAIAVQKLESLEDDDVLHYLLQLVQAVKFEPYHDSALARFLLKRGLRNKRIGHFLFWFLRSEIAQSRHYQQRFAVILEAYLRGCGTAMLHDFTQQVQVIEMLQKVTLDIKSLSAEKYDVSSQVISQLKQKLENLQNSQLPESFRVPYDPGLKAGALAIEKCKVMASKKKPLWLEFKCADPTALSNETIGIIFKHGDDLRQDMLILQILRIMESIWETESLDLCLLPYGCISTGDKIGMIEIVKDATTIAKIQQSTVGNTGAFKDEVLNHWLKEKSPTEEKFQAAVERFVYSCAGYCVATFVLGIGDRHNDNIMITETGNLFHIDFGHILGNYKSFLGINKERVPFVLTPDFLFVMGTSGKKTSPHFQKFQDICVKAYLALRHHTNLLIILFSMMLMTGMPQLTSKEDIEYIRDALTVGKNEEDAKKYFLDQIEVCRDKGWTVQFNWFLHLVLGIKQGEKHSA

With `CC(C)C(=O)N1CCC(n2ncc3c(N4CC5CCC(C4)O5)nc(-c4ccc(NC(=O)Nc5cccnc5)cc4)nc32)CC1` [Example 88, 1-{4-[1-(1-isobutyrylpiperidin-4-yl)-4-(8-oxa-3-azabicyclo[3.2.1]oct-3-yl)-1H-pyrazolo[3,4-d]pyrimidin-6-yl]phenyl}-3-pyridin-3-ylurea], the IC50 at Human mTOR (FLAG-TOR) was 0.3 nM; at PI3K [1] (PI3 Kinase α) it was 454 nM; on PI3K [2] (PI3 Kinase γ), 3820 nM; with breast line MDA468, 130 nM; with prostate line LNCap it was 60 nM.

As to `O=C(Nc1ccc(-c2nc(N3C4CCC3COC4)c3cnn(CC(F)(F)F)c3n2)cc1)Nc1cccnc1` [Example 268, 1-{4-[4-(3-oxa-8-azabicyclo[3.2.1]oct-8-yl)-1-(2,2,2-trifluoroethyl)-1H-pyrazolo[3,4-d]pyrimidin-6-yl]phenyl}-3-pyridin-3-ylurea], the IC50 at Human mTOR (FLAG-TOR) is 0.2 nM; at PI3K [1] (PI3 Kinase α) it was 227 nM; on PI3K [2] (PI3 Kinase γ) it was 3010 nM; in the assay with breast line MDA468 it was 3 nM; with prostate line LNCap, less than 1 nM.

Take `O=C(Nc1ccc(CO)cc1)Nc1ccc(-c2nc(N3CC4CCC(C3)O4)c3cnn(CCO)c3n2)cc1` [Example 201, 1-{4-[1-(2-hydroxyethyl)-4-(8-oxa-3-azabicyclo[3.2.1]oct-3-yl)-1H-pyrazolo[3,4-d]pyrimidin-6-yl]phenyl}-3-[4-(hydroxymethyl)phenyl]urea]: the IC50 at Human mTOR (FLAG-TOR) amounted to 0.265 nM; at PI3K [1] (PI3 Kinase α) it was 50 nM; on PI3K [2] (PI3 Kinase γ) it was 1760 nM; with breast line MDA468, 12 nM; in the assay on prostate line LNCap, 13 nM.

For `CN(C)CCOc1ccc(NC(=O)Nc2ccc(-c3nc(N4C5CCC4COC5)c4cnn(CC(F)(F)F)c4n3)cc2)cc1` [Example 275, 1-{4-[2-(dimethylamino)ethoxy]phenyl}-3-{4-[4-(3-oxa-8-azabicyclo[3.2.1]oct-8-yl)-1-(2,2,2-trifluoroethyl)-1H-pyrazolo[3,4-d]pyrimidin-6-yl]phenyl}urea], the IC50 was 0.575 nM on Human mTOR (FLAG-TOR); 275 nM on PI3K [1] (PI3 Kinase α); 3110 nM at PI3K [2] (PI3 Kinase γ); less than 1 nM in the assay with breast line MDA468; less than 1 nM with prostate line LNCap.

On to `N#CCCn1ncc2c(N3CC4CCC(C3)O4)nc(-c3ccc(NC(=O)Nc4ccc(CCO)cc4)cc3)nc21` [Example 219, 1-{4-[1-(2-cyanoethyl)-4-(8-oxa-3-azabicyclo[3.2.1]oct-3-yl)-1H-pyrazolo[3,4-d]pyrimidin-6-yl]phenyl}-3-[4-(2-hydroxyethyl)phenyl]urea], for which the IC50 against Human mTOR (FLAG-TOR) was 0.082 nM; at PI3K [1] (PI3 Kinase α), 44 nM; at PI3K [2] (PI3 Kinase γ), 1380 nM; in the assay with breast line MDA468, less than 1 nM; in the assay on prostate line LNCap, less than 1 nM.

With `COC(=O)N1CCC(n2ncc3c(N4CC5CCC(C4)O5)nc(-c4ccc(NC(=O)Nc5ccccc5CO)cc4)nc32)CC1` [Example 172, methyl 4-{6-[4-({[2-(hydroxymethyl)phenyl]carbamoyl}amino)phenyl]-4-(8-oxa-3-azabicyclo[3.2.1]oct-3-yl)-1H-pyrazolo[3,4-d]pyrimidin-1-yl}piperidine-1-carboxylate], the IC50 at Human mTOR (FLAG-TOR) is 3.05 nM; at PI3K [1] (PI3 Kinase α), 1370 nM; at PI3K [2] (PI3 Kinase γ), 1730 nM; in the assay on breast line MDA468, 1300 nM; with prostate line LNCap, 200 nM.

For the compound `COC(=O)N1CCC(n2ncc3c(N4C5CCC4COC5)nc(-c4ccc(NC(=O)Nc5ccc(OCCN(C)C)cc5)cc4)nc32)CC1` [Example 368, methyl 4-[6-{4-[({4-[2-(dimethylamino)ethoxy]phenyl}carbamoyl)amino]phenyl}-4-(3-oxa-8-azabicyclo[3.2.1]oct-8-yl)-1H-pyrazolo[3,4-d]pyrimidin-1-yl]piperidine-1-carboxylate], the IC50 against Human mTOR (FLAG-TOR) (setting [3]) turned out to be 0.885 nM; on PI3K [1] (setting [4]), 1160 nM; at PI3K [2] (setting [5]) it was 2000 nM; in the assay on breast line MDA468, 4 nM; in the assay on prostate line LNCap, 1 nM.

Consider `O=C(Nc1ccc(-c2nc(N3CC4CCC(C3)O4)c3cnn(C4CCC5(CC4)OCCO5)c3n2)cc1)OCC(F)(F)F` [Example 129, 2,2,2-trifluoroethyl {4-[1-(1,4-dioxaspiro[4.5]dec-8-yl)-4-(8-oxa-3-azabicyclo[3.2.1]oct-3-yl)-1H-pyrazolo[3,4-d]pyrimidin-6-yl]phenyl}carbamate], for which the IC50 is 10.4 nM on Human mTOR (FLAG-TOR); greater than 10000 nM at PI3K [1] (PI3 Kinase α); greater than 10000 nM on PI3K [2] (PI3 Kinase γ); 4900 nM in the assay on breast line MDA468; 800 nM in the assay on prostate line LNCap.

As for `CN1CCN(c2ccc(NC(=O)Nc3ccc(-c4nc(N5CC6CCC(C5)O6)c5cnn(CCC#N)c5n4)cc3)cc2)CC1` [Example 220, 1-{4-[1-(2-cyanoethyl)-4-(8-oxa-3-azabicyclo[3.2.1]oct-3-yl)-1H-pyrazolo[3,4-d]pyrimidin-6-yl]phenyl}-3-[4-(4-methylpiperazin-1-yl)phenyl]urea], the IC50 at Human mTOR (FLAG-TOR) was determined as 0.48 nM; on PI3K [1] (PI3 Kinase α), 74 nM; on PI3K [2] (PI3 Kinase γ) it was 1680 nM; with breast line MDA468, 10 nM; in the assay on prostate line LNCap, 4 nM.

For the compound `Oc1ccc(Nc2nc(N3CC4CCC(C3)O4)c3cnn(C4CCN(Cc5ccccc5)CC4)c3n2)cc1` [Example 30, 4-{[1-(1-benzylpiperidin-4-yl)-4-(8-oxa-3-azabicyclo[3.2.1]oct-3-yl)-1H-pyrazolo[3,4-d]pyrimidin-6-yl]amino}phenol], the IC50 is 260 nM against Human mTOR (FLAG-TOR); 2450 nM at PI3K [1] (PI3 Kinase α); greater than 10000 nM on PI3K [2] (PI3 Kinase γ); 7600 nM with breast line MDA468; 2800 nM in the assay with prostate line LNCap.

Turning to `CCNC(=O)Nc1ccc(-c2nc(N3CC4CCC(C3)O4)c3cnn(C4CCN(C(=O)OC)CC4)c3n2)cc1` [Example 9, methyl 4-[6-{4-[(ethylcarbamoyl)amino]phenyl}-4-(8-oxa-3-azabicyclo[3.2.1]oct-3-yl)-1H-pyrazolo[3,4-d]pyrimidin-1-yl]piperidine-1-carboxylate], the IC50 on Human mTOR (FLAG-TOR) was 0.22 nM; on PI3K [1] (PI3 Kinase α), 5330 nM; at PI3K [2] (PI3 Kinase γ) it was greater than 10000 nM; in the assay on breast line MDA468, 180 nM; in the assay with prostate line LNCap it was 9 nM.

On to `CC(C)OC(=O)N1CCC(n2ncc3c(N4CC5CCC(C4)O5)nc(-c4ccc(NC(=O)NC5CC5)cc4)nc32)CC1` [Example 70, isopropyl 4-[6-{4-[(cyclopropylcarbamoyl)amino]phenyl}-4-(8-oxa-3-azabicyclo[3.2.1]oct-3-yl)-1H-pyrazolo[3,4-d]pyrimidin-1-yl]piperidine-1-carboxylate], for which the IC50 against Human mTOR (FLAG-TOR) amounted to 0.44 nM; at PI3K [1] (PI3 Kinase α), 924 nM; on PI3K [2] (PI3 Kinase γ) it was 9500 nM; with breast line MDA468, 140 nM; in the assay on prostate line LNCap, 3 nM.

Regarding `CC(C)(C)n1ncc2c(N3CC4CCC(C3)O4)nc(-c3ccc(NC(=O)Nc4ccccc4)cc3)nc21` [Example 99], the IC50 came out at 1.8 nM on Human mTOR (FLAG-TOR); 130 nM at PI3K [1] (PI3 Kinase α); 577 nM on PI3K [2] (PI3 Kinase γ); 280 nM with breast line MDA468; 68 nM with prostate line LNCap.

For the compound `CCOC(=O)N1CCC(n2ncc3c(N4CC5CCC(C4)O5)nc(-c4ccc(NC(=O)NC5CCNCC5)cc4)nc32)CC1` [Example 103, ethyl 4-[4-(8-oxa-3-azabicyclo[3.2.1]oct-3-yl)-6-{4-[(piperidin-4-ylcarbamoyl)amino]phenyl}-1H-pyrazolo[3,4-d]pyrimidin-1-yl]piperidine-1-carboxylate], the IC50 was determined as 6.8 nM on Human mTOR (FLAG-TOR); 874 nM on PI3K [1] (PI3 Kinase α); 1100 nM at PI3K [2] (PI3 Kinase γ); 11000 nM in the assay on breast line MDA468; 5000 nM with prostate line LNCap.

Take `COC(=O)N1CCC(n2ncc3c(N4CC5CCC(C4)O5)nc(-c4ccc(N)cc4)nc32)CC1` [Example 120, methyl 4-[6-(4-aminophenyl)-4-(8-oxa-3-azabicyclo[3.2.1]oct-3-yl)-1H-pyrazolo[3,4-d]pyrimidin-1-yl]piperidine-1-carboxylate]: the IC50 is 69 nM on Human mTOR (FLAG-TOR); 7920 nM at PI3K [1] (PI3 Kinase α); greater than 10000 nM on PI3K [2] (PI3 Kinase γ); 6900 nM in the assay on breast line MDA468; 950 nM in the assay with prostate line LNCap.

As to `CNC(=O)Nc1ccc(-c2nc(N3CC4CCC(C3)O4)c3cnn(C4CCC(OC)CC4)c3n2)cc1` (stereo not shown) [Example 383, 1-{4-[1-(4-methoxycyclohexyl)-4-(8-oxa-3-azabicyclo[3.2.1]oct-3-yl)-1H-pyrazolo[3,4-d]pyrimidin-6-yl]phenyl}-3-methylurea], the IC50 at Human mTOR (FLAG-TOR) (setting [3]) was 0.53 nM; at PI3K [1] (setting [4]), 793 nM; on PI3K [2] (setting [5]) it was greater than 10000 nM; with breast line MDA468, 30 nM; in the assay on prostate line LNCap, 7 nM.

Turning to `CN1CCN(CCNC(=O)Nc2ccc(-c3nc(N4CC5CCC(C4)O5)c4cnn(C5CCC6(CC5)OCCO6)c4n3)cc2)CC1` [Example 134, 1-{4-[1-(1,4-dioxaspiro[4.5]dec-8-yl)-4-(8-oxa-3-azabicyclo[3.2.1]oct-3-yl)-1H-pyrazolo[3,4-d]pyrimidin-6-yl]phenyl}-3-[2-(4-methylpiperazin-1-yl)ethyl]urea], the IC50 against Human mTOR (FLAG-TOR) is 17.5 nM; at PI3K [1] (PI3 Kinase α), 2440 nM; on PI3K [2] (PI3 Kinase γ) it was greater than 10000 nM; in the assay with breast line MDA468, 4000 nM; in the assay on prostate line LNCap, 390 nM.

For orientation: IC50 means the concentration that gives 50% inhibition.
